# Laboratory results: patent US20150125452A1, “COMBINATION TREATMENTS COMPRISING C-MET ANTAGONISTS AND B-RAF ANTAGONISTS” (GENENTECH, INC., priority 2011, published 2015)
# Legend:
# [1] = system: kinase-addicted cancer cell lines; experiment: RTK ligand matrix screen, Syto 60 cell viability; format: cell-based, Human; conditions: for effect of RTK ligand on conferring drug resistance to kinase inhibitors: 50 ng/mL RTK ligand, 72 h, 41 cell lines
# Procedure: (§1) Cell viability was assessed using the nucleic acid stain Syto 60 (Invitrogen). Cells (3000-5000 per well) were seeded into 96 well plates and allowed to adhere overnight. The next day, cells were treated with (or without) 50 ng/mL RTK ligand and concomitantly exposed to an increasing concentration range of the relevant kinase inhibitor. Following 72 hours drug exposure, cells were fixed in 4% formaldehyde, stained with Syto 60 and cell number was assessed using an Odyssey scanner (Li-Cor). Cell viability was calculated by dividing the fluorescence obtained from the drug-treated cells by the fluorescence obtained from the control (no drug) treated cells.
# Cell lines. Human cancer cell lines were obtained and tested for sensitivity using an automated platform as previously described (Johannessen, C. M. et al. COT drives resistance to RAF inhibition through MAP kinase pathway reactivation. Nature 468, 968-972, doi:10.1038/nature09627 (2010)). Cell lines were maintained at 37° C. in a humidified atmosphere at 5% CO2 and grown in RPMI 1640 or DMEM/F12 growth media (GIBCO) supplemented with 10% fetal bovine serum (GIBCO), 50 units/mL penicillin and 50 μg/mL streptomycin (GIBCO).
# Using 41 different human tumor-derived cell lines with previously defined kinase dependency^7-9, we undertook a “matrix analysis” to examine the effects of 6 different RTK ligands (HGF, EGF, FGF, PDGF, NRG1, IGF)—known to be widely expressed in cancer cells and tumor stroma^10—on drug response. Specifically, we quantified the effect of exposing these cancer cell lines (e.g., AU565 (HER2 amp)) to each ligand on the IC50 for a kinase inhibitor (e.g., lapatinib) that otherwise potently suppresses their growth within 72 hours (FIG. 1A). Nearly all of the kinase-dependent cancer cell lines tested, which included cells derived from multiple tissue types and with distinct kinase dependencies (EGFR, HER2, BRAF, MET, ALK, PDGFR, and FGFR), could be rescued from drug-induced growth inhibition by one or more RTK ligands, highlighting the potentially broad contribution of these ligands to the response to selective kinase inhibitors in kinase-addicted tumor cells (FIG. 1B).
# 928MEL xenografts = experiment: Xenograft tumour growth assay; format: in vivo, CRL C.B-17 SCID.bg mice; conditions: for tumor regression, B-raf antagonist plus c-met antagonist versus PLX[…] alone: PLX[…]-treated xenografts
# Procedure: […] Differences between the 2 groups were determined using two-way ANOVA (*=0.0008).
# All procedures conformed to the guidelines and principles set by the Institutional Animal care and Use Committee of Genentech and were carried out in an AAALAC (Association for the Assessment and Accreditation of Laboratory Animal care) accredited facility. […] Tumor volumes were calculated using the formula (Lx(W×W))/2. A partial response (PR) in this example was defined as a reduction in tumour volume greater than 50% but less than 100%. A complete response (CR) in this example was defined as 100% reduction in tumour volume. […]
# [2] = system: kinase-addicted cancer cell lines; experiment: RTK ligand matrix screen, Syto 60 cell viability; format: cell-based, Human; conditions: six kinase addicted cell lines, six RTK ligands
# [3] = system: HCC1954 HER2 amplified breast cancer cells; conditions: lapatinib 5 μM, crizotinib 1 μM, twice weekly
# Procedure: Cells were treated twice weekly for the indicated times.
# The effects of MET kinase inhibition to delay lapatinib resistance in HCC 1954 cells were examined.
# [4] = system: BRAF mutant melanoma cell lines; experiment: Syto 60 cell viability, HGF rescue from PLX[…]; format: cell-based, Human
# Procedure: Cells were treated twice weekly for the indicated times. […] Error bars represent mean+/−s.e.m.
# as §1, with “Following 72 hours drug exposure, cells were fixed in 4% formaldehyde, stained with Syto 60 and cell number was assessed using an Odyssey scanner (Li-Cor).” left out
# [5] = system: AKT and ERK phosphorylation; experiment: Immunoblots of survival pathway re-activation; format: cell-based, Human; conditions: for PI3K/MAPK pathway re-activation by RTK ligand in presence of kinase inhibitor: 50 ng/mL ligand, kinase inhibitor 1 μM, 2 h
# Procedure: FIGS. 2A-2C: pro-survival pathway re-activation correlated with RTK ligand rescue. FIG. 2A, Immunoblots showing the effect of acute RTK ligand treatment (50 ng/mL) on AKT and ERK phosphorylation following kinase inhibition (1 μM, 2 h). RTK ligand rescue is indicated, grey squares indicates complete rescue and black squares indicates partial rescue as determined by the initial screen (FIG. 1B). […] Cells were co-treated with 50 ng/mL RTK ligand in the presence of the appropriate secondary kinase inhibitor (0.5 μM) as indicated. […] Error bars represent mean+/−s.e.m. FIG. 2C, Immunoblots showing the effect of acute kinase inhibition (1 μM) in the presence and absence of RTK ligands (50 ng/mL, 2 h) on AKT and ERK phosphorylation. Cells were co-treated with secondary kinase inhibitor (0.5 μM) as appropriate.
# Cell lysates were harvested using Nonidet-P40 lysis buffer, supplemented with Halt protease and phosphatase inhibitor cocktail (Thermo Scientific) and immunodetection of proteins was carried out using standard protocols. The phospho-HER2 (Y1248; #2247), HER2 (#2242), phospho-HER3 (Y1289; #4791), phospho-MET (Y1234/5; #3126), PDGFRα (#5241), phospho-FRS2α (Y196; #3864), IGF-1Rβ (#3027), phospho-ALK (Y1604; #3341), AKT (#9272), phospho-ERK (T202/Y204; #9101), ERK (#9102), GAPDH (#2118) and β-Tubulin (#2146) antibodies were purchased from Cell Signaling Technologies. Antibodies to HER3 (SC-285), MET (SC-10), phospho-PDGFRα (SC-12911), FRS2α (SC-8318), FGFR1 (SC-7945), FGFR2 (SC-122), FGFR3 (SC-13121) and ALK (SC-25447) were purchased from Santa Cruz Biotechnologies. Phospho-AKT (S473; #44-621G) antibody was purchased from Invitrogen. Phospho-EGFR (Y1068; ab5644) antibody was purchased from Abeam. EGFR (#610017) antibody was purchased from BD Biosciences. PARP (#14-6666-92) antibody was purchased from eBioscience. Densitometry was carried out using ImageJ software.
# [6] = system: AU565 HER2 amplified breast cancer cells; experiment: Syto 60 viability and long-term staining with lapatinib and ligands; format: cell-based, Human; conditions: lapatinib 1 μM, 10 ng/mL NRG1, FGF or combination, 72 h
# Procedure: FIGS. 3A-3G: HGF promoted lapatinib resistance in HER2 amplified cell lines. […] HGF rescue is indicated, black squares indicates partial rescue as determined by the initial screen (FIG. 1B). […] Cells were treated every three days for the indicated times. […] FIG. 3D, Immunoblots showing the re-activation of pAKT and pERK in two MET positive (AU565, HCC1954) and one MET negative (BT474) HER2 amplified cell lines. […] FIG. 3E, Representative slides showing MET expression in HER2 positive (3+) breast cancer tissues. FIG. 3F, selection of higher MET expressing AU565 cells following 3× treatments with lapatinib (1 μM) and HGF (50 ng/mL). FIG. 3G. […] Cells were treated twice weekly for the indicated times.
# AU565 sells were co-treated with lapatinib (1 μM) in combination with 10 ng/mL NRG1 or FGF. […] Cells were treated with the appropriate kinase inhibitors in the presence of HGF (50 ng/mL). Cells were then treated with either 100 nM PI3K inhibitor (BEZ235) or MAPK inhibitor (AZD6244). Error bars represent mean+/−s.e.m.
# as §1
# [7] = system: HER2-amplified breast cancer cell lines; experiment: Syto 60 cell viability, ligand rescue from lapatinib; format: cell-based, Human; conditions: 50 ng/mL ligand, 72 h
# Procedure: as §1
# The ability of HGF to rescue 3 of 9 tested HER2-amplified breast cancer cell lines from growth inhibition by the HER2 kinase inhibitor lapatinib was also unexpected (FIG. 3A). These 3 cell lines all express MET, and expression was well correlated with the ability of HGF to attenuate lapatinib response (FIG. 3B).
# [8] = system: BRAF mutant metastatic melanoma patients; experiment: BRIM2 clinical trial, outcome by plasma HGF level; format: in vivo, human; conditions: PLX[…]-treated patients
# Procedure: Plasma was obtained from metastatic melanoma patients pre-dose cycle one and the concentration of HGF in patient-derived plasma were quantitatively measured using a sandwich enzyme-linked immunosorbent assay (ELISA). Wells of NUNC MaxiSorp microtiter plates were coated (ON, 4° C.) with 0.5 μg/mL of affinity-purified Goat antihuman hepatocyte growth factor polyclonal antibody in 100 μL of coating buffer (0.05M sodium carbonate buffer, pH 9.6) and were then blocked with 0.5% bovine serum albumin (BSA) in assay buffer (PBS, 0.5% BSA, 0.05% P 20, 0.25% CHAPS, 0.35M NaCl, 5 mM EDTA, 10 ppm Proclin300, pH 7.4) for 1 hour at room temperature. Diluted human hepatocyte growth factor controls and plasma samples (100 μL) in assay buffer were loaded in duplicates and incubated for 2 hours at room temperature, followed by the addition of 100 μL of affinity-purified goat antihuman hepatocyte growth factor biotin (150 ng/mL) for an additional 1 hour at room temperature. Avidin-conjugated horseradish peroxidase (40 ng/mL) in PBS, 0.5% BSA, 0.05% P 20, 10 ppm Proclin300, pH 7.4, was added (1 hour, room temperature), and the reaction was visualized by the addition of 100 μL of chromogenic substrate (TMB) for 15 minutes. The reaction was stopped with 1M phosphoric acid and absorbance at 450 nm was measured with reduction at 630 nm with an ELISA plate reader. Plates were washed 3 times with washing buffer (0.05% Tween 20/PBS) after each step. As a reference for quantification, a standard curve was established by a serial dilution of human hepatocyte growth factor (CritRS CR67; 2000-15.625 pg/mL).
# HGF levels were log-transformed, and the Kolmogorov-Smirnoff test was used to test the resulting distribution for departure from the Gaussian distribution. The Cox-proportional model was used to test the log-transformed HGF levels for association with the progression free survival (PFS) and overall survival (OS). Association between the response and HGF levels was tested using the Wilcoxon rank-sum test. Kaplan-Meier (KM) curves were used to show display the relationship between the HGF levels and the time-to-event outcomes (PFS and OS). […] The cox-proportional model of the outcome as the function of the continuous HGF level was used to calculate the hazard ratio and corresponding p-value.
# [9] = 10 mice per group, 4 weeks, PR = tumour volume reduction >50% but <100%
compound,measurement,setting,value
"Cn1c(=O)n(-c2ccc(C(C)(C)C#N)cc2)c2c3cc(-c4cnc5ccccc5c4)ccc3ncc21 [BEZ235, reference compound]",reversal of HGF-induced rescue by PI3K versus MAPK pathway inhibition,"[1]; 100 nM BEZ235 or AZD6244, HGF 50 ng/mL, with kinase inhibitor",more potent at reversing ligand—induced rescue
"CCN1CC[C@@H](Nc2n[nH]c3nccc(Oc4ccc(NC(=O)c5ccnn(-c6ccc(F)cc6)c5=O)cc4F)c23)[C@@H](F)C1 [GDC-0712, N-(4-(3-((3S,4R)-1-ethyl-3-fluoropiperidine-4-ylamino)-1H-pyrazolo[3,4-b]pyridin-4-yloxy)-3-fluorophenyl)-2-(4-fluorophenyl)-3-oxo-2,3-dihydropyridazine-4-carboxamide]","partial responses, PLX[…] with MET kinase inhibition",928MEL xenografts; [9],8
same,"tumor regression, B-raf antagonist plus c-met antagonist versus PLX[…] alone",928MEL xenografts,greater effect on tumor regression
N.N.[Cl][Pt][Cl] [cisplatin],RTK ligand rescue from growth suppressive effects of cisplatin,[2],none of the tested RTK ligands could rescue cells
"C[C@@H](Oc1cc(-c2cnn(C3CCNCC3)c2)cnc1N)c1c(Cl)ccc(F)c1Cl [crizotinib, 3-[(1R)-1-(2,6-dichloro-3-fluorophenyl)ethoxy]-5-(1-piperidin-4-ylpyrazol-4-yl)pyridin-2-amine]",emergence of lapatinib resistance under MET kinase inhibition,[3],delayed the emergence of lapatinib resistance
same,reversal of HGF survival rescue by MET inhibition,"[4]; PLX[…], HGF 50 ng/mL, crizotinib 0.5 μM, 72 h",survival rescue by HGF was reversed
FGF: recombinant human FGF-basic purchased from Peprotech,effect of RTK ligand on conferring drug resistance to kinase inhibitors,[1],most broadly active ligands
same,PI3K/MAPK pathway re-activation by RTK ligand in presence of kinase inhibitor,[5],only re-activated the MAPK pathway
same,rescue from kinase inhibition by activating both PI3K and MAPK pathways,[6],additive
IGF: recombinant human IGF-1 purchased from Peprotech,effect of RTK ligand on conferring drug resistance to kinase inhibitors,[1],relatively little effect
same,PI3K/MAPK pathway re-activation by RTK ligand in presence of kinase inhibitor,[5],only re-activated the PI3K
same,downstream signalling after receptor activation in non-rescued cells,"[5]; COLO-201 and BT474 cell lines, IGF",downstream signalling via PI3K or MAPK was not observed
"NRG1: HER3 ligand, rhNRG1-β1 purchased from R and D Systems",effect of RTK ligand on conferring drug resistance to kinase inhibitors,[1],most broadly active ligands
same,rescue despite activation of receptor and a downstream survival effector,"[1]; H2228 and H358 cells with HGF, COLO-201 cells with NRG1",not sufficient to rescue cells from kinase inhibition
same,number of HER2-amplified breast cancer cell lines rescued from lapatinib,[7],8 of the 9
same,PI3K/MAPK pathway re-activation by RTK ligand in presence of kinase inhibitor,[5],only re-activated the PI3K
same,rescue from kinase inhibition by activating both PI3K and MAPK pathways,[6],additive
PDGF: recombinant human PDGF-AB purchased from Peprotech,effect of RTK ligand on conferring drug resistance to kinase inhibitors,[1],relatively little effect
PLX4032,"hazard ratio, overall survival with increased HGF","[8]; Cox-proportional model, p<0.001",1.8
same,"hazard ratio, progression free survival with increased HGF","[8]; Cox-proportional model, p<0.005",1.42
same,"overall survival, HGF above median versus below median","[8]; median plasma HGF 334 pg/mL, p<0.001",substantially reduced
same,"progression-free survival, HGF above median versus below median","[8]; median plasma HGF 334 pg/mL, p=0.005",substantially reduced
same,"partial responses, PLX[…] alone",928MEL xenografts; [9],1
same,"tumor regression, B-raf antagonist plus c-met antagonist versus PLX[…] alone",928MEL xenografts,statistically significant improvement in tumor regression
same,correlation of MET expression with PLX[…] sensitivity,[4]; HGF-rescuable cell lines,inversely correlated
